Where two headings read alike, the source gives them in different places. Marks after values point to notes of the source that are not given here.
Columns and labels:
[1] = target: T1, human MMP-7 (Homo sapiens, UniProt P09237); experiment: Enzyme inhibition activity against MMP-7 (matrilysin), fluorescent peptide substrate NFF-2; assay type: biochemical; settings: human MMP-7, substrate NFF-2, 37° C. for 2.5 hours
T1 construct: purchased Kabushiki Kaisha Yagai Chuo Kenkyusho YU-31001
T1 sequence (P09237 95-267): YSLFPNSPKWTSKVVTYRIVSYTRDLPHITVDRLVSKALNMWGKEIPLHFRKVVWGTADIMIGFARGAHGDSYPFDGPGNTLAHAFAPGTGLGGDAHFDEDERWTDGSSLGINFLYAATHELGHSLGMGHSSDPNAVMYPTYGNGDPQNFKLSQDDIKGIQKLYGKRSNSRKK
Method: The inhibition activity against human MMP-7 was measured by the same method as the method for MMP-3, by using a MMP-7 solution (0.025 unit/ml; No. YU-31001, manufactured by Kabushiki Kaisha Yagai Chuo Kenkyusho, purity: at least 99.9%) and a fluorescent peptide substrate MOCAc—Arg-Pro-Lys-Pro-Tyr—Ala-Nva-Trp-Met-Lys(Dnp) -NH2 [NFF-2, No. 3167-v, manufactured by Peptide Institute, Inc.]. The enzymatic reaction was carried out at 37° C. for 2.5 hours in a dark place, and the relative fluorescence intensity was measured at a fluorescence wavelength of 400 nm with an excitation wavelength of 327 nm.

[2] = target: T2, human MMP-9 (gelatinase B) (Homo sapiens, UniProt P14780); experiment: Inhibition activity against human MMP-9 (gelatinase B), fluorescent peptide substrate; assay type: biochemical; settings: compounds of the formula (I)
T2 construct: endogenous in cells; host or cells: HT1080 human fibrosarcoma cells (ATCC CCL-121), PMA-stimulated; enzyme purified from the culture supernatant
In short: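 MMP-9 purified from PMA-stimulated (10 ng/ml) HT1080 supernatant, or commercial enzyme (0.0125-0.025 unit/ml or 0.2 μg/ml final), incubated with compound and 10 μM final Mca-Pro-Leu-Gly-Leu-Dpa-Ala-Arg-NH2 fluorescent substrate at 37 °C for 3 h in the dark. Precursor enzyme activated with APMA.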

[3] = test system: Colon 26/AD cells (mouse colon cancer); assay type: in vivo
Method: Colon 26 mouse colon cancer cells (obtained from Cancer Chemotherapy Center Foundation for Cancer Research) were transplanted subcutaneously to BALB/c mouse, 10 days later, the grown tumor was taken out. It was hashed in a Hanks equilibrium salt solution and passed through a metal mesh to obtain single cells, which were cultured in vitro (37° C., 5% CO2) (using 10% fetal bovine serum-containing Dulbecco's Modified Eagle Medium (D-5648, manufactured by Sigma Co.)). […] The same cell strain always produced and secreted MMP-2 in the supernatant of the in vitro culture, but when cultured by an addition of TNF-α (50 ng/ml) in the culture solution, it produced MMP-9 remarkably.
With reference to the method by Tsuruo et al (Japanese Journal of Cancer Research (Gann), Vol. 75, 193-198, 1984), the inhibition effects against experimental lung metastasis were evaluated. Namely, 3×10^4 Colon 26/AD cells (suspended in 0.2 ml of Minimum Essential Medium (manufactured by Nissui Seiyaku K. K.)) cultured in vitro were transplanted through the tail vein of a male BALB/c AnNCrj mouse (purchased from Charles River Japan, Inc.) of 6 weeks old (Day 0). In the case of Compound No. 37, it was suspended in a 1% Tween 80/physiological sodium chloride aqueous solution and intraperitoneally administered (administered in a volume of 10 ml/kg) immediately (within 5 minutes) before transplantation of the cells, 2 hours later and once per day on Day 1-4 and Day 7-11 (a total of 11 times). Further, in the case of Compound No. 157, it was dissolved in 100 mM Tris-HCl (pH 8.5)/150 mM NaCl and forcibly orally administered (administered in a volume of 10 ml/kg) by means of a metal sonde 30 minutes before transplantation of the cells, in the morning and evening of Day 1 and once per day on Day 2-4, Day 7-11 and Day 14 (a total of 12 times). To the vehicle control group, the respective solvents containing no test materials, were administered in the same manner. On Day 14 or Day 15, the lung of each mouse was taken out, and the weight was measured, and the metastatis inhibition rate was calculated in accordance with the following formula. [formula]
A is the weight of lung of the treated group
B is the average weight of lung of the normal group
C is the average weight of lung of the solvent control group.

[4] = 1st measurement, read-out: MMP-9 inhibition activities IC50, 1st
[5] = 2nd measurement, read-out: MMP-9 inhibition activities IC50, 2nd
[6] = average of 1st and 2nd (or single measurement), read-out: MMP-9 inhibition activities IC50, Average

T2 sequence (P14780 107-707 limits assumed): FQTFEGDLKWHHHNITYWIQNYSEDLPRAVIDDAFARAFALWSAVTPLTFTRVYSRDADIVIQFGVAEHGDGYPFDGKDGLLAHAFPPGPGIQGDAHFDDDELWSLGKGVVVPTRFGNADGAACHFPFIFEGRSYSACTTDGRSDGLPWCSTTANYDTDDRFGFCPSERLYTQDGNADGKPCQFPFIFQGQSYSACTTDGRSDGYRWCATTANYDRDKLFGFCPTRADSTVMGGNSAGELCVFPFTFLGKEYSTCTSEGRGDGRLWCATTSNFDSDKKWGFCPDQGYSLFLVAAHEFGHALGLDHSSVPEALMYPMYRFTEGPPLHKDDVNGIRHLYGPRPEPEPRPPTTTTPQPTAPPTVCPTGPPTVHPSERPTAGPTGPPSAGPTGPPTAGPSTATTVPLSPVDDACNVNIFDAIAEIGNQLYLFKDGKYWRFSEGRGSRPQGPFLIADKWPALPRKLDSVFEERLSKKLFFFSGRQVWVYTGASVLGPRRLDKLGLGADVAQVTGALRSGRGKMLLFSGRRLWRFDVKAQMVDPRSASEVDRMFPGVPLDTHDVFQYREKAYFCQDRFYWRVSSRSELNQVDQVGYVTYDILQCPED

IC50 [2, 4] | IC50 [2, 5] | IC50 [2, 6] | melting point | Compound | IC50 [1] | Metastatis inhibition ratio (%) ([3]; 30 mg/kg × 11 times, intraperitoneal, Day 14) | Lung weight increase (g) against normal mouse ([3]; 30 mg/kg × 11 times, intraperitoneal, Day 14, vehicle control 0.189 ± 0.07) | Weight of lung (g) (Day 14) ([3]; 30 mg/kg × 11 times, intraperitoneal, Day 14, vehicle control 0.402, normal mouse 0.213) | inhibition ratio of experimental metastasis of Colon 26/AD to lung ([3]; 30 mg/kg, intraperitoneal administration, total of 11 times, male BALB/c mouse, from lung weight)
10.7 µM | 6.1 µM | 8.4 µM | 169 °C (dec.) | CCCCOc1cc(C(F)(F)F)cc(NNC(=C[N+](=O)[O-])NC)n1 [compound 177] | – | – | – | – | –
11.8 µM | 12.5 µM | 12.2 µM | 161 °C (dec.) | CCCCOc1cc(C(F)(F)F)cc(NNC(=C[N+](=O)[O-])NC)n1 [compound 178] | – | – | – | – | –
11.6 µM | – | 11.6 µM | 180 °C (dec.) | CNC(=C[N+](=O)[O-])NNc1cc(C(F)(F)F)cc(OCC(F)(F)F)n1 [compound 181] | – | – | – | – | –
20 µM | 10.6 µM | 15.3 µM | 167 °C (dec.) | CNC(=C[N+](=O)[O-])NNc1cc(C(F)(F)F)cc(OCC2CC2)n1 [compound 184] | – | – | – | – | –
11.1 µM | – | 11.1 µM | 94 °C | CNC(=C[N+](=O)[O-])NNc1cc(C(F)(F)F)cc(OCCSC)n1 [compound 189] | – | – | – | – | –
8.1 µM | 13.6 µM | 10.9 µM | 128 °C | CCCCOCCOc1cc(C(F)(F)F)cc(NNC(=C[N+](=O)[O-])NC)n1 [compound 192] | – | – | – | – | –
11.2 µM | – | 11.2 µM | 167 °C (dec.) | CNC(=C[N+](=O)[O-])NNc1cc(C(F)(F)F)cc(OCCOC(C)C)n1 [compound 196] | – | – | – | – | –
10.3 µM | 10.9 µM | 10.6 µM | 147 °C | CCOCCCOc1cc(C(F)(F)F)cc(NNC(=C[N+](=O)[O-])NC)n1 [compound 197] | – | – | – | – | –

The remaining lines, values behind:

Compound | IC50 [2, 4] | IC50 [2, 5] | IC50 [2, 6] | melting point | IC50 [1] | Metastatis inhibition ratio (%) ([3]; 30 mg/kg × 11 times, intraperitoneal, Day 14) | Lung weight increase (g) against normal mouse ([3]; 30 mg/kg × 11 times, intraperitoneal, Day 14, vehicle control 0.189 ± 0.07) | Weight of lung (g) (Day 14) ([3]; 30 mg/kg × 11 times, intraperitoneal, Day 14, vehicle control 0.402, normal mouse 0.213) | inhibition ratio of experimental metastasis of Colon 26/AD to lung ([3]; 30 mg/kg, intraperitoneal administration, total of 11 times, male BALB/c mouse, from lung weight)
CNC(=C[N+](=O)[O-])NNc1cc(C(F)(F)F)cc(Cl)n1 [Compound No. 37] | 4.5 µM | 7 µM | 5.8 µM | – | 24.5 µM | 40.2%* | 0.113 ± 0.06 g | 0.326 g | 40.2%
CNC(=C[N+](=O)[O-])NNc1cc(C(F)(F)F)cc(OCc2ccccc2Cl)n1 [compound 174] | 9 µM | – | 9 µM | 162 °C (dec.) | – | – | – | – | –
CNC(=C[N+](=O)[O-])NN=Cc1ncc(C(F)(F)F)cc1Cl [compound 179] | 8.3 µM | – | 8.3 µM | 171 °C (dec.) | – | – | – | – | –
CNC(=C[N+](=O)[O-])NNc1cc(OCCOC)cc(C(F)(F)F)c1 [compound 182] | 7 µM | 5.6 µM | 6.4 µM | 138 °C | – | – | – | – | –
CNC(=C[N+](=O)[O-])NNc1c(Cl)cncc1Cl [compound 186] | 12.3 µM | – | 12.3 µM | 197 °C (dec.) | – | – | – | – | –
CNC(=C[N+](=O)[O-])NNc1cc(C(F)(F)F)cc(OCCN2CCOCC2)n1 [compound 188] | 6.2 µM | – | 6.2 µM | 166 °C (dec.) | – | – | – | – | –
CNC(=C[N+](=O)[O-])NNc1cc(C(F)(F)F)cc(OCCOC(C)(C)C)n1 [compound 193] | 10.5 µM | – | 10.5 µM | 170 °C (dec.) | – | – | – | – | –
CNC(=C[N+](=O)[O-])NNc1cc(C(F)(F)F)cc(OCCOCCOC)n1 [compound 194] | 4.9 µM | 8.4 µM | 6.7 µM | 128 °C | – | – | – | – | –
CNC(=C[N+](=O)[O-])NNc1cc(C(F)(F)F)cc(OCCSc2ccccc2)n1 [compound 195] | 11.6 µM | – | 11.6 µM | 170 °C (dec.) | – | – | – | – | –
O=[N+]([O-])C=C(NCCCCO)NNc1cc(C(F)(F)F)cc(Cl)n1 [compound 199] | 5.7 µM | 6.2 µM | 6 µM | 150 to 151 °C | – | – | – | – | –
Cc1cc(C)c(S(C)(=O)=O)c(NNC(=C[N+](=O)[O-])NS(C)(=O)=O)n1 [compound 202] | 6.3 µM | – | 6.3 µM | 170 °C (dec.) | – | – | – | – | –
